Test results taken from patent US20170172955A1, “Treatment of Mixed Dyslipidemia” (priority 2015, published 2017).

Columns and labels:
plasma fibrinogen = assay: Fibrinogen levels in rats (electro immunoassay); assay type: in vivo, rat; settings: male Sprague-Dawley rats, 100 mg/kg/day oral, 14 days
Experimental: Fifty-Six male Sprague-Dawley rats were obtained from Charles River Laboratories. All animals were allowed normal rat chow (Ralston-Purina) and water ad libitum in temperature-controlled rooms, under a 12-hour light, 12-hour dark cycle beginning with lights on at 6 AM. Rats were distributed to 7 groups of 8 rats per group. […] Control animals received vehicle alone. […] CI-719 is gemfibrozil. […] The plasma fibrinogen plasma levels were determined by electro immunoassay. […] Data are shown in FIG. 12 as mean±SEM of as percent of control fibrinogen levels. *p<0.001, two-sided unpaired t-test, compared to control.

[1] = system: cholesterol and triglyceride synthesis; assay: Inhibition of plasma and hepatic cholesterol and triglyceride synthesis in apoB100/Lp(a) mice; assay type: in vivo, mouse
Experimental: The apoB100/Lp(a) (cross of mice transgenic for human apoB100 and human apo(a)) mice) were obtained from Charles River. There were 8 animals per treatment group. […] Mice were acclimated for a minimum of 7 days to a reverse 12 hour light/12 hour dark cycle prior to administration of the first dose of test drug or vehicle. […] Test drugs and vehicle were given once daily. Thirty minutes after the eighth dose, 12.5 μCi [^14C] sodium acetate was administered. […] Individual plasma samples were acquired by placing whole blood samples into EDTA loaded centrifuge tubes and centrifuged. Plasma was transferred to new tubes and stored at −20° C. until assayed for [^14C] labeled cholesterol. Liver samples were flash frozen in liquid nitrogen and stored at −80° C. until assayed for [^14C] labeled cholesterol and triglycerides. Assay for plasma [^14C] labeled cholesterol. […] Additionally, 0.025 μCi […] (Perkin Elmer Life Sciences Inc. Boston, Mass.) was added to each sample, and to 2 or 3 spike controls in 7-mL scintillation vials, as an extraction internal standard. […] Samples were vortexed and saponified at 75° C. for 1 hour. After the samples cooled […] [^14C] labeled cholesterol was extracted with 2.5 mL petroleum ether per sample and shaken for 10 minutes, and then centrifuged for 10 minutes at 0° C. […] Each sample was then dissolved in 0.25 mL of 2 parts chloroform to 1 part per methanol by sonication. Five mL scintillant was added to each sample and the spike controls for direct [^3H] and [^14C] […] per minute (DPM) recording using a Packard 2500TR Tri-Carb Liquid Scintillation Analyzer. […] Assay for liver [^14C] labeled cholesterol and triglycerides. Frozen liver samples were kept on dry ice during sample weighing procedures and assay preparations. Each sample was homogenized in a solution of ice-cold methanol;0.5 N acetic acid. […] Samples were then vortexed and centrifuged for 20 minutes at 3000 rpm at room temperature to separate the phases. The lower chloroform layer was transferred to new vials. The remaining upper aqueous phase was extracted in like manner with 15 mL chloroform 2 more times. […] The aqueous phase was discarded and the chloroform phase was washed 2 times in like manner with 15 mL 1 part methanol to 1 part water, discarding the aqueous phase. The chloroform samples were evaporated under nitrogen gas, and resuspended in 600 μL chloroform and 30 μL removed for scintillation counting. Sample volumes were adjusted for corrected percent recovery and a calculated volume to load based on total liver weight. Calculated volumes were spotted onto TLC plates and dried in an 80° C. oven. After the plates had cooled to room temperature, they were developed in 102 mL isooctane:diethyl ether:glacial acetic acid, 75:25:2, respectively. Plates were dried in an 80° C. oven and allowed to cool to room temperature, wrapped in plastic wrap, and exposed to the phosphorimager screen. Imagequant software was used to quantitate cholesterol and triglyceride bands.

[2] = system: STAM model of non-alcoholic steatohepatitis (NASH)
Experimental: Telmisartan (Micardis®) was purchased from Boehringer Ingelheim GmbH (Germany) and dissolved in pure water.
Telmisartan was administered at a dose of 10 mg/kg once daily.
Measurement of whole blood and plasma biochemistry: Eight-hour fasting blood samples were collected from facial vein at 3 days prior to termination.
Eight-hour fasting blood glucose was measured in whole blood using Life Check (EIDIA Co. Ltd., Japan). For plasma biochemistry, eight-hour fasting blood was collected in polypropylene tubes with anticoagulant (Novo-Heparin, Mochida Pharmaceutical, Japan) and centrifuged at 1,000×g for 15 minutes at 4° C. The supernatant was collected and stored at −80° C. until use. Plasma insulin levels were quantified by Ultra Sensitive Mouse Insulin ELISA kit (Morinaga Institute of Biological Science, Inc., Japan).
On the day of termination, non-fasting blood glucose was measured in whole blood using Life Check. For plasma biochemistry, non-fasting blood was collected in polypropylene tubes with anticoagulant (Novo-Heparin) and centrifuged at 1,000×g for 15 minutes at 4° C. The supernatant was collected and stored at −80° C. until use. Plasma ALT, AST, ALP, GGT, BUN, creatinine and total bilirubin levels were measured by FUJI DRI-CHEM 7000 (Fujifilm Corporation, Japan). Plasma ketone body levels were quantified by EnzyChrom™ Ketone Body Assay Kit (BioAssay Systems, USA). […]
Histological analyses: For HE staining, sections were cut from paraffin blocks of liver tissue prefixed in Bouin's solution and stained with Lillie-Mayer's Hematoxylin (Muto Pure Chemicals Co., Ltd., Japan) and eosin solution (Wako Pure Chemical Industries). […] To visualize collagen deposition, Bouin's fixed liver sections were stained using picro-Sirius red solution (Waldeck, Germany). […]
Statistical analyses were performed using Bonferroni Multiple Comparison Test on GraphPad Prism 6 (GraphPad Software Inc., USA). […] Results were expressed as mean±SD.
The viability, clinical signs and behavior were monitored daily. Body weight was recorded before the treatment. […] The animals were sacrificed by exsanguination through direct cardiac puncture under isoflurane anesthesia (Pfizer Inc.) at 9 weeks of age.

[3] = 3 mg/kg oral once daily, 8 doses
[4] = STAM mice, telmisartan 10 mg/kg PO QD, Day 18, 8 hours of fasting
[5] = STAM mice, telmisartan 10 mg/kg PO QD, termination (Day 21)
[6] = telmisartan 10 mg/kg PO QD, n = 7

For `Cc1ccc(C)c(OCCCC(C)(C)C(=O)O)c1` [Gemfibrozil, gemfibrozil, reference compound], the “reduction in plasma fibrinogen levels compared with control” value (plasma fibrinogen) was 31%.

`CCC(C)(C)C(=O)O[C@H]1C[C@@H](C)C=C2C=C[C@H](C)[C@H](CC[C@@H]3C[C@@H](O)CC(=O)O3)[C@H]21` [Simvastatin, simvastatin, reference compound] was tested, and the “inhibition of cholesterol synthesis as measured in plasma” value ([1]; 3 mg/kg) was 59%, the “lowering of cholesterol synthesis in liver tissue” value ([1]; 3 mg/kg) was 82% and the “hepatic Cholesterol synthesis ([14C] sodium acetate), % Change from Vehicle” value [1, 3] was −82 ± 8 %. The “hepatic Triglycerides synthesis ([14C] sodium acetate), % Change from Vehicle” value [1, 3] was 4.0 ± 15%.

With `CCCc1nc2c(C)cc(-c3nc4ccccc4n3C)cc2n1Cc1ccc(-c2ccccc2C(=O)O)cc1` [Telmisartan, reference compound] the “Sirius Red positive area (mean ± SD)” value ([2]; STAM mice, telmisartan 10 mg/kg PO QD 6-9 wks) was 0.48 ± 0.09%, the “NAFLD Activity score, NAS (mean ± SD)” value ([2]; STAM mice, telmisartan 10 mg/kg PO QD 6-9 wks, n = 7) was 2.6 ± 1.0 and the “mortality during the treatment period” value ([2]; STAM mice, telmisartan 10 mg/kg PO QD, before reaching Day 21) was “one mouse was found dead”. The “Fasting blood glucose (mean ± SD)” value [2, 4] was 742 ± 90 mg/dL, the “Plasma insulin (mean ± SD)” value [2, 4] was 0.16 ± 0.04 ng/mL and the “Liver hydroxyl-proline (mean ± SD)” value [2, 5] was 0.91 ± 0.21 μg/mg total protein. The “Liver triglyceride (mean ± SD)” value [2, 5] was 31.7 ± 6.4 mg/g liver, the “Non-fasting blood glucose (mean ± SD)” value [2, 5] was 856 ± 62 mg/dL and the “Plasma ALT (mean ± SD)” value [2, 5] was 39 ± 15 U/L. The “Plasma AST (mean ± SD)” value [2, 5] was 121 ± 38 U/L, the “Plasma ketone body (mean ± SD)” value [2, 5] was 8.11 ± 3.27 mM and the “number of mice with Hepatocyte ballooning score 0 (None)” value [2, 6] was 2. The “number of mice with Hepatocyte ballooning score 1 (Few balloon cells)” value [2, 6] was 4, the “number of mice with Hepatocyte ballooning score 2 (Many cells/prominent ballooning)” value [2, 6] was 1 and the “number of mice with Lobular inflammation score 0 (No foci)” value [2, 6] was 2. For the same molecule, the “number of mice with Lobular inflammation score 1 (<2 foci/200x)” value [2, 6] was 4, the “number of mice with Lobular inflammation score 2 (2-4 foci/200x)” value [2, 6] was 1 and the “number of mice with Steatosis score 0 (<5%)” value [2, 6] was 1. For the same molecule, the “number of mice with Steatosis score 1 (5-33%)” value [2, 6] was 6.
